# Measured values reported in patent US11230526B1, “Cylcoalkenyl derivatives useful as agonists of the GPR120 and/or GPR40 receptors” (Janssen Pharmaceutica NV, priority 2018, dated 2022).
# Legend:
# [1] = biological target: T1, Human GPR120 short form (Homo sapiens, UniProt Q5NUL3); test: Human GPR120 calcium flux assay, Procedure Calcium B (4200 cells/well); type: cell-based
# T1 construct: expressed in transfected cells
# T1 sequence (Q5NUL3 1-361): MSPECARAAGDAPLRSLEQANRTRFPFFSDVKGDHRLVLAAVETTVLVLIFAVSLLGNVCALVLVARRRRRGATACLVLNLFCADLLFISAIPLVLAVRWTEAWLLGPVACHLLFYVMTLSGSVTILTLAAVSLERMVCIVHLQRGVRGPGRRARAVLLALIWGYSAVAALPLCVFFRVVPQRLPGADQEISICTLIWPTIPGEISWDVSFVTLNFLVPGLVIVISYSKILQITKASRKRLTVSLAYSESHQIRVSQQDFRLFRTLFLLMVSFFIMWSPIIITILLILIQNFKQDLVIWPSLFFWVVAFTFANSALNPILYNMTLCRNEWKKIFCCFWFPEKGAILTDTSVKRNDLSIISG
# Method in brief: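 Agonist EC50 came from a four-parameter fit of RFU (Fmax−Fmin) read over 300 s on FLIPR. Cells were HEK293 stably transfected with human GPR120 (NM_001195755.1) at 4200 per well, serum-starved 1 h and loaded with Fluo-4 NW dye with probenecid before ligand addition.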
# [2] = biological target: T2, human GPR40 (Homo sapiens, UniProt O14842); test: GPR40 calcium flux assay, human GPR40; type: cell-based; conditions: HEK293 cells stably expressing GPR40; table does not say human or rat
# T2 construct: expressed in transfected cells
# T2 sequence (O14842 whole entry): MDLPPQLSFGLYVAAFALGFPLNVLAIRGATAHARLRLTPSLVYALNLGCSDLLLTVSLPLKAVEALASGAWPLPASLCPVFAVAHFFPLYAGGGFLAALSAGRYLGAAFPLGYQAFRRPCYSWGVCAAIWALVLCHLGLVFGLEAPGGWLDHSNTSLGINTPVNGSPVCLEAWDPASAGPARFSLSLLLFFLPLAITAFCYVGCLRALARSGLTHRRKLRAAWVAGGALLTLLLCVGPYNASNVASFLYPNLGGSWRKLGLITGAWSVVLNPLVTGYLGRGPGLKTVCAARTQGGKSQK
# Method in brief: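 Cells preincubated 1 h at 37° C. in HBSS, 20 mM HEPES, 0.1% BSA, then Fluo 8 calcium dye 30 min at 37° C. and 15 min at room temperature.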
SMILES,EC50 [1],EC50 [2]
O=C(O)CCc1ccc(OCC2=C(c3ccc(F)c(F)c3)CCC2)cc1 [Compound 103],> 5000 nM,> 5000 nM
"Cc1ccc(CC2=C(COc3ccc(CCC(=O)O)c(Cl)c3)CCC2)cc1 [Compound 348, 3-[2-chloro-4-[[2-(p-tolylmethyl)cyclopenten-1-yl]methoxy]phenyl]Propanoic Acid]",2360 nM,57 nM
"CCCC1=C(COc2ccc(CCC(=O)O)c(C(F)(F)F)c2)CCC1 [Compound 389, 3-[4-[(2-propylcyclopenten-1-yl)methoxy]-2-(trifluoromethyl)phenyl]Propanoic Acid]",750 nM,51 nM
"CC(C)CC1=C(COc2ccc(CCC(=O)O)c(Cl)c2)CCC1 [Compound 394, 3-[2-chloro-4-[(2-isobutylcyclopenten-1-yl)methoxy]phenyl]Propanoic Acid]",1410 nM,129 nM
"CCCC1=C(COc2ccc(CCC(=O)O)c(Cl)c2)CCCC1 [Compound 591, 3-[2-chloro-4-[(2-propylcyclohexen-1-yl)methoxy]phenyl]Propanoic Acid]",2390 nM,431 nM
"CC(C)CC1=C(COc2ccc(CCC(=O)O)c(Cl)c2)CCCC1 [Compound 580, 3-[2-chloro-4-[(2-isobutylcyclohexen-1-yl)methoxy]phenyl]Propanoic Acid]",1330 nM,202 nM
"O=C(O)CCc1ccc(OCC2=C(c3ccc(OC(F)(F)F)cc3)CCC2)cc1C(F)(F)F [Compound 308, 3-[4-[[2-[4-(trifluoromethoxy)phenyl]cyclopenten-1-yl]methoxy]-2-(trifluoromethyl)phenyl]Propanoic Acid]",> 5000 nM,899 nM
"O=C(O)CCc1ccc(OCC2=C(c3ccccc3Cl)CCC2)cc1Cl [Compound 295, 3-[2-chloro-4-[[2-(2-chlorophenyl)cyclopenten-1-yl]methoxy]phenyl]Propanoic Acid]",1650 nM,234 nM
"O=C(O)CCc1ccc(OCC2=C(c3ccc(Cl)cc3)CC(F)(F)C2)cc1Cl [Compound 251, 3-[2-chloro-4-[[2-(4-chlorophenyl)-4,4-difluoro-cyclopenten-1-yl]methoxy]phenyl]Propanoic Acid]",195 nM,579 nM
"C#Cc1cc(OCC2=C(C3CCCC3)CCC2)ccc1CCC(=O)O [Compound 454, 3-[4-[(2-cyclopentylcyclopenten-1-yl)methoxy]-2-ethynyl-phenyl]Propanoic Acid]",2250 nM,513 nM
"Cc1ccc(C2=C(COc3ccc(CCC(=O)O)c(Cl)c3)CCC2)cc1 [Compound 310, 3-[2-chloro-4-[[2-(p-tolyl)cyclopenten-1-yl]methoxy]phenyl]Propanoic Acid]",209 nM,1120 nM
"O=C(O)CCc1ccc(OCC2=C(C3CCC3)CCC2)cc1C(F)(F)F [Compound 399, 3-[4-[(2-cyclobutylcyclopenten-1-yl)methoxy]-2-(trifluoromethyl)phenyl]Propanoic Acid]",671 nM,15 nM
Cc1ccc(C2=C(COc3ccc(CCC(=O)O)cc3)CCC2)cc1O [Compound 234],1140 nM,> 5000 nM
"Cc1ccc(F)c(C2=C(COc3ccc(CCC(=O)O)c(C(F)(F)F)c3)CCC2)c1 [Compound 341, 3-[4-[[2-(2-fluoro-5-methyl-phenyl)cyclopenten-1-yl]methoxy]-2-(trifluoromethyl)phenyl]Propanoic Acid]",447 nM,281 nM
"Cc1ccc(C2=C(COc3ccc(CCC(=O)O)c(Cl)c3)CCC2)cc1F [Compound 296, 3-[2-chloro-4-[[2-(3-fluoro-4-methyl-phenyl)cyclopenten-1-yl]methoxy]phenyl]Propanoic Acid]",157 nM,1070 nM
"O=C(O)CCc1ccc(OCC2=C(Cc3nccs3)CCC2)cc1C(F)(F)F [Compound 440, 3-[4-[[2-(thiazol-2-ylmethyl)cyclopenten-1-yl]methoxy]-2-(trifluoromethyl)phenyl]Propanoic Acid]",2800 nM,382 nM
"O=C(O)CCc1ccc(OCC2=C(C3CCC4CC43)CCC2)cc1 (stereo not shown) [Compound 455, 3-[4-[[2-(4-bicyclo[3.1.0]hexanyl)cyclopenten-1-yl]methoxy]phenyl]Propanoic Acid]",340 nM,403 nM
"O=C(O)CCc1ccc(OCC2=C(C3CC3)CCC2)cc1C(F)(F)F [Compound 351, 3-[4-[(2-cyclopropylcyclopenten-1-yl)methoxy]-2-(trifluoromethyl)phenyl]Propanoic Acid]",> 5000 nM,1230 nM

SMILES,EC50 [1],EC50 [2]
"CC(C)C1=C(COc2ccc(CCC(=O)O)c(Cl)c2)CCCC1 [Compound 587, 3-[2-chloro-4-[(2-isopropylcyclohexen-1-yl)methoxy]phenyl]Propanoic Acid]",1140 nM,99 nM
"Cc1c(CCC(=O)O)ccc(OCC2=C(c3ccc(Cl)cc3)C(C(C)C)CCC2)c1C (stereo not shown) [Compound 523, 3-[4-[[2-(4-chlorophenyl)-3-isopropyl-cyclohexen-1-yl]methoxy]-2,3-dimethyl-phenyl]Propanoic Acid]",> 5000 nM,> 5000 nM
"Cc1cccc(CC2=C(COc3ccc(CCC(=O)O)c(Cl)c3)CCC2)c1 [Compound 406, 3-[2-chloro-4-[[2-(m-tolylmethyl)cyclopenten-1-yl]methoxy]phenyl]Propanoic Acid]",> 5000 nM,152 nM
"Cc1c(CCC(=O)O)ccc(OCC2=C(c3ccc(Cl)cc3)CCCCC2)c1C [Compound 615, 3-[4-[[2-(4-chlorophenyl)cyclohepten-1-yl]methoxy]-2,3-dimethyl-phenyl]Propanoic Acid]",172 nM,> 10000 nM
"CCc1ccc(C2=C(COc3cc(C)c(CCC(=O)O)cc3F)CCC2)cc1 [Compound 290, 3-[4-[[2-(4-ethylphenyl)cyclopenten-1-yl]methoxy]-5-fluoro-2-methyl-phenyl]Propanoic Acid]",418 nM,> 5000 nM
"O=C(O)CCc1ccc(OCC2=C(Cc3nccs3)CCC2)cc1Cl [Compound 445, 3-[2-chloro-4-[[2-(thiazol-2-ylmethyl)cyclopenten-1-yl]methoxy]phenyl]Propanoic Acid]",3540 nM,266 nM
"COc1cc(OCC2=C(C3CCCC3)CCC2)ccc1CCC(=O)O [Compound 434, 3-[4-[(2-cyclopentylcyclopenten-1-yl)methoxy]-2-methoxy-phenyl]Propanoic Acid]",387 nM,59 nM
"Cc1ccc(C2=C(COc3c(F)cc(CCC(=O)O)cc3F)CCC2)o1 [Compound 212, 3-[3,5-difluoro-4-[[2-(5-methyl-2-furyl)cyclopenten-1-yl]methoxy]phenyl]Propanoic Acid]",> 5000 nM,> 5000 nM
"O=C(O)CCc1ccc(OCC2=C(Cc3cncs3)CCCC2)cc1Cl [Compound 595, 3-[2-chloro-4-[[2-(thiazol-5-ylmethyl)cyclohexen-1-yl]methoxy]phenyl]Propanoic Acid]",1110 nM,218 nM
"Cc1cc(OCC2=C(c3ccc(Br)cc3)CCC2)c(F)cc1CCC(=O)O [Compound 299, 3-[4-[[2-(4-bromophenyl)cyclopenten-1-yl]methoxy]-5-fluoro-2-methyl-phenyl]Propanoic Acid]",251 nM,661 nM
"O=C(O)CCc1ccc(OCC2=C(Cc3ccccc3F)CCC2)cc1C(F)(F)F [Compound 404, 3-[4-[[2-[(2-fluorophenyl)methyl]cyclopenten-1-yl]methoxy]-2-(trifluoromethyl)phenyl]Propanoic Acid]",1910 nM,105 nM
"Cc1cccc(C2=C(COc3ccc(CCC(=O)O)c(C(F)(F)F)c3)CCC2)c1 [Compound 312, 3-[4-[[2-(m-tolyl)cyclopenten-1-yl]methoxy]-2-(trifluoromethyl)phenyl]Propanoic Acid]",612 nM,402 nM
"O=C(O)CCc1ccc(OCC2=C(c3ccc(C(F)(F)F)cc3)CCC2)cc1Cl [Compound 272, 3-[2-chloro-4-[[2-[4-(trifluoromethyl)phenyl]cyclopenten-1-yl]methoxy]phenyl]Propanoic Acid]",2240 nM,265 nM
"Cc1cc(OCC2=C(Cc3ccc(F)cc3)CCC2)c(F)cc1CCC(=O)O [Compound 350, 3-[5-fluoro-4-[[2-[(4-fluorophenyl)methyl]cyclopenten-1-yl]methoxy]-2-methyl-phenyl]Propanoic Acid]",1770 nM,669 nM
"COc1ccc(C2=C(COc3ccc(CCC(=O)O)c(C)c3C)CCC2)cn1 [Compound 220, 3-[4-[[2-(6-methoxy-3-pyridyl)cyclopenten-1-yl]methoxy]-2,3-dimethyl-phenyl]Propanoic Acid]",160 nM,> 5000 nM
"O=C(O)CCc1ccc(OCC2=C(c3ccc(OC(F)(F)F)cc3)CCC2)cc1Cl [Compound 311, 3-[2-chloro-4-[[2-[4-(trifluoromethoxy)phenyl]cyclopenten-1-yl]methoxy]phenyl]Propanoic Acid]",> 5000 nM,792 nM
"Cc1cccc(C2=C(COc3ccc(CCC(=O)O)c(Cl)c3)CCC2)c1 [Compound 298, 3-[2-chloro-4-[[2-(m-tolyl)cyclopenten-1-yl]methoxy]phenyl]Propanoic Acid]",1630 nM,1590 nM
